# Laboratory results as given in patent publication US20090302265A1, “Supercooling promoting agent” (priority 2006, published 2009).
# Tests used:
# [1] = tested on: dead bacterial cells of ice nucleation active bacteria (Erwinia ananas); test: supercooling activity (droplet freezing on cooled copper plate, temperature at which 50% of droplets are frozen); format: physicochemical; settings: cooling 0.2° C./min; for supercooling activity (difference of freezing point vs buffer with ice nucleation bacteria only): 0.5 mg/mL test sample, 50 mM potassium phosphate buffer pH 7.0, 2 μL droplets; for supercooling activity: 0.1 mg/mL test compound, otherwise as example 1
# Protocol: The supercooling activity (or represented as inhibiting activity of ice nucleus formation) is the value measured by the following method. […] A large number of 2 μL droplets of the solution are put on a cupper plate, which is temperature-controllable. Then, the cupper plate is cooled at the rate of 0.2° C./min, the number of frozen droplets are counted macroscopically and the temperature, wherein 50% of droplets are frozen, is defined as freezing point. The supercooling activity is defined as the difference (° C.) between the freezing point of solution containing test sample and ice nucleation active bacteria, and that of solution containing only ice nucleation bacteria and buffer solution.
# The supercooling activities of these samples were measured by the following methods. After a buffer solution (50 mM potassium phosphate buffer, pH 7.0) containing dead bacterial cells (Wako pure chemical industries Ltd.,) of ice nucleation active bacteria (Erwinia ananas) mixed with 0.5 mg/mL of a test sample, 2 μL droplets of the solution are put on a cupper plate, which is temperature-controllable. Then, the cupper plate is cooled at the rate of 0.2° C./min, the number of frozen droplets are counted macroscopically and the temperature, wherein 50% of droplets are frozen, is defined as freezing point. The difference (° C.) between the freezing point and that of the buffer solution was measured.
# [2] = tested on: pig liver cells; test: viability of pig liver cells after supercooled storage (trypan blue staining); format: cell-based; settings: 0.01% by weight in UW liquid with 1% by volume DMSO; −5° C. and −8° C.; 1, 4 and 7 days; FIG. 8
# Protocol: The storage liquid was prepared by adding 0.01% by weight of kaempferol-7-glucoside (compound 2 (Cj5)), Extrasynthese Co.) and 1% by volume of DMSO (Wako pure chemical industries Ltd., guaranteed reagent) to a buffer solution (UW liquid, 100 mM lactobionic acid, 25 mM KH2PO4, 5 mM MgSO4, 30 mM raffinose, 2.5 mM adenosine, 3 mM GSH, 1 mM allopurinol, 0.25 mg/mL streptomycin, 10 UI/mL penicillin).
# For comparison, a mixed solution (UW liquid) without kaempferol-7-O-glucoside and DMSO was prepared.
# The viability of cells was evaluated by trypan blue (GIBCO) staining, when pig liver cells 5×10^6 cells/mL were dipped in 0.5 cc of the above storage liquid, supercooled at −5° C. and at −8° C., and stored for 1, 4 and 7 days.
# [3] = tested on: cranberry shoot apexes (buds); test: survival of cranberry shoot apexes after vitrification in liquid nitrogen and thawing; settings: 0.05% by weight in 75% vitrification liquid (75% PVS2); liquid nitrogen overnight, thawed at room temperature; FIG. 9A vs 9B
# Protocol: As a vitrification liquid, 75% dilution solution of PVS2 liquid (22.5% by volume glycerol, 11.25% by volume of ethyleneglycol, 11.25% by volume of DMSO, […], the remainder was Murashige & Skoog medium, DUCHEFA BIOCHEMIE BV) supplemented with 0.05% by weight of kaempferol-7-O-glucoside (compound 2, Extrasynthese Co.) was used (hereinafter referred to as “75% vitrification liquid”).
# For comparison, a mixed solution without kaempferol-7-O-glucoside was prepared. Shoot apexes (buds) are isolated from cranberry (subcultured in Hokkaido University, Graduate School of Agriculture) and dipped in the above mixed solution at room temperature.
# On the other hand, survival of shoot apexes, which were dipped in 75% vitrification liquid containing kaempferol-7-O-glucoside at room temperature for a specified loading time, put into liquid nitrogen, frozen for overnight, and then thawed at room temperature, is shown in frozen batch of FIG. 9A. Similarly, survival of the apexes, which were dipped in a vitrification liquid without kaempferol-7-O-glucoside and frozen, is shown in frozen batch of FIG. 9B.
SMILES,supercooling activity (difference of freezing point vs buffer with ice nucleation bacteria only) [1] [°C],supercooling activity [1] [°C],further results
"O=c1c(OC2OC(CO)[C@@H](O)C(O)[C@H]2O)c(-c2ccc(O)c(O)c2)oc2cc(O)cc(O)c12 (stereo partly drawn) [compound 1, quercetin-3-O-β-glucoside]",−1.8,,
"O=c1c(O)c(-c2ccc(O)cc2)oc2cc(OC3OC(CO)[C@@H](O)C(O)[C@H]3O)cc(O)c12 (stereo partly drawn) [compound 2, kaempherol-7-O-β-glucoside]",−7.7,,viability of cells after supercooled storage [2]: enables storage of viable animal cells for long-term; survival of shoot apexes after freezing (damage due to freezing) [3]: significantly reduced the damage due to freezing
"COc1c(O)cc(O)c2c(=O)c(OC3OC(CO)[C@@H](O)C(O)[C@H]3O)c(-c3ccc(O)cc3)oc12 (stereo partly drawn) [compound 3, 8-methoxykaempferol-3-O-β-glucoside]",−0.2,,
"O=c1c(OC2OC(CO)[C@@H](O)C(O)[C@H]2O)c(-c2ccc(O)cc2)oc2cc(O)cc(O)c12 (stereo partly drawn) [compound 4, kaempferol-3-O-β-glucoside]",−2.5,,
"O=c1cc(-c2ccccc2)oc2cc(O[C@@H]3O[C@H](CO)[C@@H](O)[C@H](O)[C@H]3O)cc(O)c12 [compound 5, Chrycin-7-O-β-D-glucopyranoside]",,−4.5,
"O=c1cc(-c2ccc(O)cc2)oc2cc(O[C@@H]3O[C@H](CO)[C@@H](O)[C@H](O)[C@H]3O)cc(O)c12 [compound 6, apigenin 7-O-β-D-glucopyranoside]",,−12.0,
"O=c1cc(-c2ccc(O[C@@H]3O[C@H](CO)[C@@H](O)[C@H](O)[C@H]3O)cc2)oc2cc(O[C@@H]3O[C@H](CO)[C@@H](O)[C@H](O)[C@H]3O)cc(O)c12 [compound 7, apigenin 4′, 7-di-O-β-D-glucopyranoside]",,−4.9,
"C[C@@H]1O[C@@H](O[C@H]2[C@H](Oc3cc(O)c4c(=O)cc(-c5ccc(O)cc5)oc4c3)O[C@H](CO)[C@@H](O)[C@@H]2O)[C@H](O)[C@H](O)[C@H]1O [compound 8, apigenin 7-O-β-neohesperidoside]",,−1.8,
